Measured values: ChEMBL document CHEMBL6120946, “From Hit to Lead: Discovery of First-In-Class Furanone Glycoside D228 Derived from Chimonanthus salicifolius for the Treatment of Inflammatory Bowel Disease” (J Med Chem, 2024)
Calls of active or inactive are those of the source. The rule behind the calls is not given here.

Key:
[1] = system: Mus musculus; assay: Antiinflammatory activity in DSS-induced male C57BL/6 mouse model of inflammatory bowel disease assessed as recovery from body weight loss at 20 mg/kg/day, ip measured after 14 days relative to control; assay type: functional; conditions: time 14 day
[2] = system: Mus musculus; assay: Antiinflammatory activity in DSS-induced male C57BL/6 mouse model of inflammatory bowel disease assessed as reduction in weight loss at 15 to 60 mg/kg/day, po via gavage measured upto 14 days; assay type: functional, organism-based; conditions: dose 15-60 mg/kg/day, time <= 14.0 day
[3] = system: Mus musculus; assay: Antiinflammatory activity in DSS-induced male C57BL/6 mouse model of inflammatory bowel disease assessed as reduction of severe diarrhea at 15 to 60 mg/kg/day, po via gavage measured upto 14 days; assay type: functional, organism-based; conditions: dose 15-60 mg/kg/day, time <= 14.0 day
[4] = system: Mus musculus; assay: Antiinflammatory activity in DSS-induced male C57BL/6 mouse model of inflammatory bowel disease assessed as reduction of bloody stool at 15 to 60 mg/kg/day, po via gavage measured upto 14 days; assay type: functional, organism-based; conditions: dose 15-60 mg/kg/day, time <= 14.0 day
[5] = system: Mus musculus; assay: Antiinflammatory activity in DSS-induced male C57BL/6 mouse model of inflammatory bowel disease assessed as increase in colon length at 30 mg/kg/day, po via gavage measured upto 14 days relative to control; assay type: functional; conditions: time <= 14 day
[6] = system: Mus musculus; assay: Antiinflammatory activity in DSS-induced male C57BL/6 mouse model of inflammatory bowel disease assessed as decrease in p38 phosphorylation level at 50 to 200 microM/Kg by Western blot analysis; assay type: functional, organism-based; conditions: dose 50-200 µM/Kg
[7] = system: Mus musculus; assay: Antiinflammatory activity in DSS-induced male C57BL/6 mouse model of inflammatory bowel disease assessed as downregulation of TRAF6 expression at 50 to 200 microM/Kg by Western blot analysis; assay type: functional, organism-based; conditions: dose 50-200 µM/Kg
[8] = system: Mus musculus; assay: Antiinflammatory activity in DSS-induced male C57BL/6 mouse model assessed as increase in IL-10 level in colon at 50 to 200 microM/Kg; assay type: functional, organism-based; conditions: dose 50-200 µM/Kg
[9] = system: Mus musculus; assay: Antiinflammatory activity in DSS-induced male C57BL/6 mouse model assessed as inhibition of IL-6 level in colon at 50 to 200 microM/Kg; assay type: functional, organism-based; conditions: dose 50-200 µM/Kg
[10] = system: Mus musculus; assay: Antiinflammatory activity in DSS-induced male C57BL/6 mouse model of inflammatory bowel disease assessed as amelioration of structural loss of colon at 50 to 200 microM/Kg by H and E staining based analysis; assay type: functional, organism-based; conditions: dose 50-200 µM/Kg
[11] = system: Mus musculus; assay: Antiinflammatory activity in DSS-induced male C57BL/6 mouse model of inflammatory bowel disease assessed as amelioration of crypts disruption at 50 to 200 microM/Kg by H and E staining based analysis; assay type: functional, organism-based; conditions: dose 50-200 µM/Kg
[12] = system: Mus musculus; assay: Antiinflammatory activity in DSS-induced male C57BL/6 mouse model of inflammatory bowel disease assessed as upregulation of ZO-1 expression in colon at 50 to 200 microM/Kg by immunohistochemical analysis; assay type: functional, organism-based; conditions: dose 50-200 µM/Kg
[13] = species on record: Mus musculus; assay: Antiinflammatory activity in DSS-induced male C57BL/6 mouse model of inflammatory bowel disease assessed as reduction in TLR7 level; assay type: functional, organism-based
[14] = species on record: Mus musculus; assay: Antiinflammatory activity in DSS-induced male C57BL/6 mouse model of inflammatory bowel disease assessed as reduction in MYD88 level; assay type: functional, organism-based
[15] = system: Mus musculus; assay: Antiinflammatory activity in DSS-induced male C57BL/6 mouse model of inflammatory bowel disease assessed as reduction in weight loss at 22.5 to 45 mg/kg/day, po via gavage measured upto 14 days; assay type: functional, organism-based; conditions: dose 22.5-45 mg/kg/day, time <= 14.0 day
[16] = system: Mus musculus; assay: Antiinflammatory activity in DSS-induced male C57BL/6 mouse model of inflammatory bowel disease assessed as restoration of colon length at 40 mg/kg/day, po via gavage measured after 14 days relative to control; assay type: functional; conditions: time 14 day
[17] = system: Mus musculus; assay: Antiinflammatory activity in DSS-induced male C57BL/6 mouse model assessed as increase in IL-10 level in colon at 50 to 100 microM/Kg; assay type: functional, organism-based; conditions: dose 50-100 µM/Kg
[18] = Metabolic stability in dog plasma assessed as half life at pH 7.4 measured upto 60 mins by HPLC-MS analysis; assay type: ADME, cell-free, Canis lupus familiaris
[19] = Acute toxicity in male Kunming mouse assessed as effect on kidney 5 g/Kg, po measured after 5 weeks; assay type: organism-based; conditions: in vivo, 5000 mg/kg, 840 h
[20] = Acute toxicity in female Kunming mouse assessed as effect on heart 5 g/Kg, po measured after 5 weeks; assay type: organism-based; conditions: in vivo, 5000 mg/kg, 840 h
[21] = Acute toxicity in female Kunming mouse assessed as effect on spleen 5 g/Kg, po measured after 5 weeks; assay type: organism-based; conditions: in vivo, 5000 mg/kg, 840 h
[22] = Toxicity in male Kunming mouse assessed as effect on heart to body weight ratio at 100 to 500 mg/kg/day, po measured after 5 weeks; assay type: organism-based; conditions: in vivo, 840 h, dose 100-500 mg/kg/day
[23] = Toxicity in male Kunming mouse assessed as effect on spleen at 100 to 500 mg/kg/day, po measured after 5 weeks by H and E staining based analysis; assay type: organism-based; conditions: in vivo, 840 h, dose 100-500 mg/kg/day
[24] = Toxicity in male Kunming mouse assessed as effect on ALT level in serum at 100 to 500 mg/kg/day, po measured after 5 weeks; assay type: organism-based; conditions: in vivo, 840 h, dose 100-500 mg/kg/day
[25] = Toxicity in male Kunming mouse assessed as effect on AST level in serum at 100 to 500 mg/kg/day, po measured after 5 weeks; assay type: organism-based; conditions: in vivo, 840 h, dose 100-500 mg/kg/day
[26] = Toxicity in male Kunming mouse assessed as effect on TP level in serum at 100 to 500 mg/kg/day, po measured after 5 weeks; assay type: organism-based; conditions: in vivo, 840 h, dose 100-500 mg/kg/day
[27] = Toxicity in male Kunming mouse assessed as effect on GGT level in serum at 100 to 500 mg/kg/day, po measured after 5 weeks; assay type: organism-based; conditions: in vivo, 840 h, dose 100-500 mg/kg/day
[28] = Toxicity in male Kunming mouse assessed as effect on TG level in serum at 100 to 500 mg/kg/day, po measured after 5 weeks; assay type: organism-based; conditions: in vivo, 840 h, dose 100-500 mg/kg/day
[29] = Toxicity in female Kunming mouse assessed as effect on lung to body weight ratio at 100 to 500 mg/kg/day, po measured after 5 weeks; assay type: organism-based; conditions: in vivo, 840 h, dose 100-500 mg/kg/day
[30] = Toxicity in female Kunming mouse assessed as effect on kidney to body weight ratio at 100 to 500 mg/kg/day, po measured after 5 weeks; assay type: organism-based; conditions: in vivo, 840 h, dose 100-500 mg/kg/day
[31] = Toxicity in female Kunming mouse assessed as effect on kidney at 100 to 500 mg/kg/day, po measured after 5 weeks by H and E staining based analysis; assay type: organism-based; conditions: in vivo, 840 h, dose 100-500 mg/kg/day
[32] = Toxicity in female Kunming mouse assessed as effect on ALT level in serum at 100 to 500 mg/kg/day, po measured after 5 weeks; assay type: organism-based; conditions: in vivo, 840 h, dose 100-500 mg/kg/day
[33] = Toxicity in female Kunming mouse assessed as effect on ABL level in serum at 100 to 500 mg/kg/day, po measured after 5 weeks; assay type: organism-based; conditions: in vivo, 840 h, dose 100-500 mg/kg/day
[34] = Toxicity in female Kunming mouse assessed as effect on ALP level in serum at 100 to 500 mg/kg/day, po measured after 5 weeks; assay type: organism-based; conditions: in vivo, 840 h, dose 100-500 mg/kg/day
[35] = Toxicity in female Kunming mouse assessed as effect on BUN level in serum at 100 to 500 mg/kg/day, po measured after 5 weeks; assay type: organism-based; conditions: in vivo, 840 h, dose 100-500 mg/kg/day
[36] = Toxicity in female Kunming mouse assessed as effect on Na inorganic salt level in serum at 100 to 500 mg/kg/day, po measured after 5 weeks; assay type: organism-based; conditions: in vivo, 840 h, dose 100-500 mg/kg/day
[37] = Drug metabolism in mouse liver microsomes assessed as phoenicein formation measured after 5 mins in presence of NADPH by LC/MS/MS analysis; assay type: ADME, Microsome

CC(C)=C1OC(C)=C(O[C@@H]2O[C@H](CO)[C@@H](O)[C@H](O)[C@H]2O)C1=O
Activity [1]: 50% | Activity [2]: Active | Activity [3]: Active | Activity [4]: Active | Activity [5]: 65.6% | Activity [6]: Active | Activity [7]: Active | Activity [8]: Active | Activity [9]: Active | Activity [10]: Active | Activity [11]: Active | Activity [12]: Active | Activity [13]: Active | Activity [14]: Active

CC(=O)OC[C@H]1O[C@@H](OC2=C(C)OC(=C(C)C)C2=O)[C@H](OC(C)=O)[C@@H](OC(C)=O)[C@@H]1OC(C)=O
Activity [15]: Active | Activity [16]: 28.6% | Activity [17]: Active | half-life [18]: 32.5 min | Activity [19]: Non-toxic | Activity [20]: Non-toxic | Activity [21]: Non-toxic | Activity [22]: Non-toxic | Activity [23]: Non-toxic | Activity [24]: Non-toxic | Activity [25]: Non-toxic | Activity [26]: Non-toxic | Activity [27]: Non-toxic | Activity [28]: Non-toxic | Activity [29]: Non-toxic | Activity [30]: Non-toxic | Activity [31]: Non-toxic | Activity [32]: Non-toxic | Activity [33]: Non-toxic | Activity [34]: Non-toxic | Activity [35]: Non-toxic | Activity [36]: Non-toxic | Drug metabolism [37]: metabolite_detected
